Data as given in US12528857B2, “Nutritionally-optimized collagen peptide” (Gelita AG, priority 2019, dated 2026).
Where no end group is shown, it is not given here. [ ]: non-standard residue; d: D form. Hyp = O=C(O)[C@@H]1C[C@@H](O)CN1

How the values were obtained:
human dermal fibroblasts [1] = assay: Proteoglycan assay (Blyscan glycosaminoglycan assay): proteoglycan synthesis by dermal fibroblasts; format: cell-based; details: 0.5 mg/ml collagen peptide, stimulation for two weeks, photometric at 656 nm, FIG. 1B
Description: (§1) The human cells used were obtained from tebu-bio GmbH, Offenbach, Germany. The chondrocytes (Cat. No. 402-05a) or dermal fibroblasts (Cat. No. 106-05a) were first sown in 12-well culture plates and cultured at 37° C., 5% CO2 in Ham's F12 medium, to which 10% fetal calf serum, 20 U/ml penicillin-streptomycin and 50 μg/ml ascorbic acid were added. On every other day, the culture medium was replaced by new culture medium until the cells had reached 80% confluence. To investigate the influence of the collagen peptides according to the invention of SEQ ID NO: 7, 8, 9 and 10 on the biosynthesis of matrix proteins, the cell culture medium was then replaced by a special stimulation medium to which 0.5 mg/ml of the specific collagen peptides according to the invention were added.
The Blyscan glycosaminoglycan assay (Article No. 054B3000, 2019, tebu-bio, Offenbach, Germany, or Biocolor Ltd., UK) was used to determine proteoglycans. The biosynthesis of proteoglycans was determined after stimulating dermal fibroblasts for two weeks. According to the manufacturer's instructions, after discarding the culture medium, the cell layers were covered with 1 ml of papain extraction solution and incubated for three hours at 65° C. with vigorous shaking. The cell suspensions were then centrifuged (10,000 g, 10 min) and the supernatants were collected. After adding 1 ml of Blyscan dye solution and shaking (30 min), the supernatants were centrifuged again (12,000 rpm, 10 min) and then discarded. The isolated proteoglycan pellets were resuspended in 500 μl of dissociation solution. A photometric determination of the synthesized proteoglycan in 200 μl sample solution was carried out at a wavelength of 656 nm in comparison to untreated control experiments.

human dermal fibroblasts [2] = assay: Collagen assay (Sircol): collagen synthesis by dermal fibroblasts; format: cell-based; details: 0.5 mg/ml collagen peptide, stimulation for three weeks, photometric at 492 nm, FIG. 1A
Description: as §1
To investigate the collagen metabolism, the amount of newly synthesized collagen was determined after stimulating the cells with 0.5 mg/ml BCP for three weeks. The synthesized collagen was isolated using the Sircol assay (Article No. 054S5000, 2019, tebu-bio, Offenbach, Germany, or Biocolor Ltd., UK) according to the manufacturer's instructions. In brief, the culture medium was initially discarded and the adherent cell layers were digested with 0.1 mg pepsin solution in 0.5 M acetic acid at 4° C. overnight. The cell suspensions were neutralized by adding 100 μl of an acid-neutralizing reagent. The synthesized collagen was then separated off by adding 200 μl of an isolation and concentration solution with vigorous shaking at 4° C. overnight. After centrifugation (12,000 rpm, 10 min) and discarding the supernatant, the isolated collagen was resuspended in 1 ml of Sircol dye solution. After 30 minutes of shaking and another centrifugation, the collagen pellet was covered with 750 μl of cold acidic solid washing reagent. After another centrifugation, the supernatant was again discarded and the enriched collagen was taken up in 250 μl of alkaline solution. In each case 200 μl of the sample solutions were used for photometric quantification of the synthesized collagen. The absorbance was measured at a wavelength of 492 nm. The amount of collagen synthesized in each case was determined on the basis of standardized collagen solutions.

Substance	increase of synthesis of proteoglycans by dermal fibroblasts in comparison to untreated controls (human dermal fibroblasts [1]) [%]	increased collagen synthesis by dermal fibroblasts compared to untreated controls (human dermal fibroblasts [2]) [%]
GP[P]GPLGMKGL[P]GVWGPFGL[P]GTPGPHGITGYKGV [SEQ ID NO: 9]	21	21
GL[P]GKYGVHGLTGPLGP[P]GPMGI[P]GWKGFVGPT (GL[Hyp]GKYGVHGLTGPLGP[Hyp]GPMGI[Hyp]GWKGFVGPT) [SEQ ID NO: 8]	22	22
GL[P]GKMGVFGLTGPIGP[P]GPWGV[P]GHKGYLGPT (GL[Hyp]GKMGVFGLTGPIGP[Hyp]GPWGV[Hyp]GHKGYLGPT) [SEQ ID NO: 7]	26	27
GP[P]GPVGTKGL[P]GFYGPLGI[P]GHPGPWGMLGTKGV [SEQ ID NO: 10]	22	21
